Test results from ChEMBL document CHEMBL1201862, “PubChem BioAssay data set” (2004).
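Method: 48-hour compound exposure of cells in 96-well plates, five concentrations, linear interpolation of endpoints. Here, GI50 denotes the concentration required for 50% inhibition of growth.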 The source made the active and inactive calls. Cut-off read from the data, not from the text of the source: active = GI50 up to about 1.1 µM and inactive = higher.

Tests used:
Test in all cases: growth of human tumour cells (NCI), 48 h
OVCAR-5 = test system: OVCAR-5
SK-OV-3 = test system: SK-OV-3
RPMI-8226 = test system: RPMI-8226
COLO 205 = test system: COLO 205
SK-MEL-2 = test system: SK-MEL-2
TK-10 = test system: TK-10
OVCAR-8 = test system: OVCAR-8
OVCAR-3 = test system: OVCAR-3
SNB-19 = test system: SNB-19
K562 = test system: K562
SNB-78 = test system: SNB-78
XF498 = test system: XF498
DMS-114 = test system: DMS-114
OVCAR-4 = test system: OVCAR-4
DMS-273 = test system: DMS-273
CAKI-1 = test system: CAKI-1
HCT-15 = test system: HCT-15
SK-MEL-28 = test system: SK-MEL-28
SNB-75 = test system: SNB-75
A498 = test system: A498
NCI-H460 = test system: NCI-H460
LOX IMVI = test system: LOX IMVI
SN12C = test system: SN12C
RXF 393 = test system: RXF 393
SF-539 = test system: SF-539
NCI-H226 = test system: NCI-H226
ACHN = test system: ACHN
KM12 = test system: KM12
Malme-3M = test system: Malme-3M
SR = test system: SR
HT-29 = test system: HT-29
SF-268 = test system: SF-268
UO-31 = test system: UO-31
KM-20L2 = test system: KM-20L2
UACC-257 = test system: UACC-257
EKVX = test system: EKVX
786-0 = test system: 786-0
SF-295 = test system: SF-295
M19-MEL = test system: M19-MEL
MOLT-4 = test system: MOLT-4
NCI-H23 = test system: NCI-H23
HL-60 = test system: HL-60
HCT-116 = test system: HCT-116
U-251 = test system: U-251
HCC 2998 = test system: HCC 2998
SK-MEL-5 = test system: SK-MEL-5
A549 = test system: A549
M14 = test system: M14
SW-620 = test system: SW-620
IGROV-1 = test system: IGROV-1
HOP-62 = test system: HOP-62

## Cc1cc2c(cc1O)[nH]c1cc3c(cc12)C=CC(C)(C)O3
OVCAR-5
  GI50: 17.7 µM (inactive)
SK-OV-3
  GI50: > 25 µM (inactive)
RPMI-8226
  GI50: 9.1 µM (inactive)
COLO 205
  GI50: > 25 µM (inactive)
SK-MEL-2
  GI50: > 25 µM (inactive)
TK-10
  GI50: > 25 µM (inactive)
OVCAR-8
  GI50: 4.55 µM (inactive)
OVCAR-3
  GI50: 7.28 µM (inactive)
SNB-19
  GI50: > 25 µM (inactive)
K562
  GI50: > 25 µM (inactive)
SNB-78
  GI50: 11.3 µM (inactive)
XF498
  GI50: > 25 µM (inactive)
DMS-114
  GI50: 10.6 µM (inactive)
OVCAR-4
  GI50: 10.5 µM (inactive)

## FC(F)(F)c1cccc(/C=N/C23CC4CC(CC(C4)C2)C3)c1
DMS-273
  GI50: > 100 µM (inactive)
CAKI-1
  GI50: > 100 µM (inactive)
OVCAR-5
  GI50: > 100 µM (inactive)
HCT-15
  GI50: > 100 µM
SK-MEL-28
  GI50: > 100 µM (inactive)
SK-OV-3
  GI50: > 100 µM (inactive)
SNB-75
  GI50: 51.9 µM (inactive)
A498
  GI50: > 100 µM (inactive)
NCI-H460
  GI50: > 100 µM (inactive)
RPMI-8226
  GI50: > 100 µM (inactive)
LOX IMVI
  GI50: > 100 µM (inactive)
SN12C
  GI50: > 100 µM (inactive)
RXF 393
  GI50: > 100 µM (inactive)
SF-539
  GI50: > 100 µM (inactive)
COLO 205
  GI50: > 100 µM (inactive)
NCI-H226
  GI50: > 100 µM (inactive)
ACHN
  GI50: > 100 µM (inactive)
KM12
  GI50: > 100 µM (inactive)
Malme-3M
  GI50: > 100 µM (inactive)
SR
  GI50: > 100 µM (inactive)
HT-29
  GI50: > 100 µM (inactive)
SF-268
  GI50: > 100 µM (inactive)
UO-31
  GI50: > 100 µM (inactive)
KM-20L2
  GI50: > 100 µM (inactive)
UACC-257
  GI50: > 100 µM (inactive)
EKVX
  GI50: > 100 µM (inactive)
786-0
  GI50: > 100 µM (inactive)
SF-295
  GI50: > 100 µM (inactive)
M19-MEL
  GI50: 27.5 µM (inactive)
MOLT-4
  GI50: > 100 µM (inactive)
NCI-H23
  GI50: > 100 µM (inactive)
SK-MEL-2
  GI50: > 100 µM (inactive)
HL-60
  GI50: > 100 µM (inactive)
TK-10
  GI50: > 100 µM (inactive)
OVCAR-8
  GI50: > 100 µM (inactive)
OVCAR-3
  GI50: > 100 µM (inactive)
SNB-19
  GI50: > 100 µM (inactive)
HCT-116
  GI50: > 100 µM (inactive)
K562
  GI50: > 100 µM (inactive)
U-251
  GI50: > 100 µM (inactive)
HCC 2998
  GI50: > 100 µM (inactive)
SK-MEL-5
  GI50: > 100 µM (inactive)
SNB-78
  GI50: > 100 µM (inactive)
XF498
  GI50: > 100 µM (inactive)
A549
  GI50: > 100 µM (inactive)
M14
  GI50: > 100 µM (inactive)
SW-620
  GI50: > 100 µM (inactive)
DMS-114
  GI50: > 100 µM (inactive)
IGROV-1
  GI50: > 100 µM (inactive)
OVCAR-4
  GI50: > 100 µM (inactive)
HOP-62
  GI50: > 100 µM (inactive)
